This note sets out measurements from ChEMBL document CHEMBL3600306, “Sulfonamide bearing pyrazolylpyrazolines as potent inhibitors of carbonic anhydrase isoforms I, II, IX and XII” (Bioorg Med Chem Lett, 2015).

This assay concerns the target Carbonic anhydrase 9 (Homo sapiens, UniProt Q16790). Put plainly: Inhibition of human carbonic anhydrase-9 incubated for 10 mins prior to testing by stopped-flow CO2 hydrase assay.
For the compound `Cc1nn(-c2ccc(S(N)(=O)=O)cc2)c(Cl)c1C1CC(c2ccccc2)=NN1c1ccc(S(N)(=O)=O)cc1` (configuration not stated), the Ki came out at 71.6 nM.

For the compound `Cc1ccc(C2=NN(c3ccc(S(N)(=O)=O)cc3)C(c3c(C)nn(-c4ccc(S(N)(=O)=O)cc4)c3Cl)C2)cc1` (configuration not stated), the affinity corresponds to a Ki of 70.7 nM.

With `COc1ccc(C2=NN(c3ccc(S(N)(=O)=O)cc3)C(c3c(C)nn(-c4ccc(S(N)(=O)=O)cc4)c3Cl)C2)cc1` (configuration not stated), the Ki came to 52.4 nM. This Ki and that of the compound before are within 1.5-fold of each other.

`Cc1nn(-c2ccc(S(N)(=O)=O)cc2)c(Cl)c1C1CC(c2ccc(F)cc2)=NN1c1ccc(S(N)(=O)=O)cc1` (configuration not stated): the affinity corresponds to a Ki of 44.7 nM.

Take `Cc1nn(-c2ccc(S(N)(=O)=O)cc2)c(Cl)c1C1CC(c2ccc(Cl)cc2)=NN1c1ccc(S(N)(=O)=O)cc1` (configuration not stated): the affinity, expressed as Ki, was 32.9 nM.

Compound `Cc1nn(-c2ccc(S(N)(=O)=O)cc2)c(Cl)c1C1CC(c2ccc(Br)cc2)=NN1c1ccc(S(N)(=O)=O)cc1` (configuration not stated) registered a Ki of 44.4 nM.

Compound `CC(=O)N1N=C(c2ccccc2)CC1c1c(C)nn(-c2ccc(S(N)(=O)=O)cc2)c1Cl` (configuration not stated) displayed a Ki of 63.1 nM. The Ki values of the last two compounds are within 1.5-fold of each other.

With `CC(=O)N1N=C(c2ccc(C)cc2)CC1c1c(C)nn(-c2ccc(S(N)(=O)=O)cc2)c1Cl` (configuration not stated), the Ki was 67.1 nM.

As to `COc1ccc(C2=NN(C(C)=O)C(c3c(C)nn(-c4ccc(S(N)(=O)=O)cc4)c3Cl)C2)cc1` (configuration not stated), the affinity, expressed as Ki, was 56.9 nM. This Ki and that of the compound before are within 1.5-fold of each other.

In turn, `CC(=O)N1N=C(c2ccc(F)cc2)CC1c1c(C)nn(-c2ccc(S(N)(=O)=O)cc2)c1Cl` (configuration not stated) yielded an inhibition constant (Ki) of 6.9 nM.

`CC(=O)N1N=C(c2ccc(Cl)cc2)CC1c1c(C)nn(-c2ccc(S(N)(=O)=O)cc2)c1Cl` (configuration not stated) gave a Ki of 30.8 nM. Against the preceding compound, the Ki is about 4.5-fold higher.

Compound `CC(=O)N1N=C(c2ccc(Br)cc2)CC1c1c(C)nn(-c2ccc(S(N)(=O)=O)cc2)c1Cl` (configuration not stated) came in with a Ki of 67.2 nM. This Ki lies about 2.2-fold higher than the previous one.

Broadly, the Ki is the equilibrium dissociation constant of an inhibitor or competing ligand from its target. A high value points to weaker binding.
